In ChEMBL document CHEMBL3091348, “Discovery of an intravenous hepatoselective glucokinase activator for the treatment of inpatient hyperglycemia” (Bioorg Med Chem Lett, 2013):
pEC50, pIC50: −log10 of the molar value. In brackets after ≈: the same amount, converted by molar mass. One block for each compound: values may come before it.

How the values were obtained:
[1] = Apparent permeability across RRCK cells; type: ADME, cell-based, Canis lupus familiaris, MDCKII-LE; settings: dog, MDCK
[2] = Lipophilicity, log D of the compound at pH 7.4; type: physicochemical; settings: buffer
[3] = target: T1, Hexokinase-4 (Homo sapiens) (UniProt P35557); assay: Activation of recombinant human glucokinase assessed as increase in enzyme Vmax for glucose by G6PDH/NADP coupled assay relative to control
T1 sequence (whole entry): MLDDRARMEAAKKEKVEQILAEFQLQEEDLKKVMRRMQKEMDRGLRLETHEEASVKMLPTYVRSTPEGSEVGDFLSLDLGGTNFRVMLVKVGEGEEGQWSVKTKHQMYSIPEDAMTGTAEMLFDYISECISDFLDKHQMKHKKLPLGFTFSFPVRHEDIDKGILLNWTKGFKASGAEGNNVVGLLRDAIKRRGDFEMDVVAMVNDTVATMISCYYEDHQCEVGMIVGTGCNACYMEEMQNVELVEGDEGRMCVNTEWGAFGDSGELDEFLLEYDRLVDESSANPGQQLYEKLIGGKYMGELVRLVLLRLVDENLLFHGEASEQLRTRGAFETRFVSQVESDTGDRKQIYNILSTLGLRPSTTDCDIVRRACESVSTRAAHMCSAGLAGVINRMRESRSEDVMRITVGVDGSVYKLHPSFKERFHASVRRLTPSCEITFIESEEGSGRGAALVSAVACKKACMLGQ

[4] = target: T1, Hexokinase-4 (Homo sapiens); assay: Activation of recombinant human glucokinase assessed as decrease in enzyme Km for glucose by G6PDH/NADP coupled assay relative to control
[5] = target: T2, Hexokinase-4 (Homo sapiens, UniProt P35557); assay: Activation of recombinant human glucokinase by G6PDH/NADP coupled assay
T2 sequence (P35557 whole entry): T1 sequence (whole entry)

[6] = Organic anion transporter-mediated drug uptake in rat hepatocytes assessed as active uptake; type: ADME, cell-based, Hepatocyte
[7] = Organic anion transporter-mediated drug uptake in rat hepatocytes assessed as passive uptake; type: ADME, cell-based, Hepatocyte
[8] = Organic anion transporter-mediated drug uptake in rat hepatocytes assessed as total uptake; type: ADME, cell-based, Hepatocyte
[9] = target: T3, Hexokinase-4 (Rattus norvegicus, UniProt P17712); assay: Activation of glucokinase in rat INS-1 cells assessed as glucose-stimulated insulin secretion; type: cell-based, INS1
T3 sequence (P17712 whole entry): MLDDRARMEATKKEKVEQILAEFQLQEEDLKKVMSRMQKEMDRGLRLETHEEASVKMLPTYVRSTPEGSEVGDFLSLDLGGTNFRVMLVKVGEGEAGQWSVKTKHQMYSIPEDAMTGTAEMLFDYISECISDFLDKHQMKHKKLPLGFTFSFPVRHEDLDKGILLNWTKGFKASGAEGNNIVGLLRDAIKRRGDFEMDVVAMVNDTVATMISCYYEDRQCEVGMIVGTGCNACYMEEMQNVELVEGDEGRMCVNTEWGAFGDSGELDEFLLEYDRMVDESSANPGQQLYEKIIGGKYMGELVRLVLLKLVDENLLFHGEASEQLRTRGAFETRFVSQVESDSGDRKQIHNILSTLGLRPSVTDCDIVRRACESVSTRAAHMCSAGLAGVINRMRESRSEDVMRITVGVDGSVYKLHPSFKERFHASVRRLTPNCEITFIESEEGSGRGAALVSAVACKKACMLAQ

[10] = Intrinsic clearance in human liver microsomes; type: ADME; settings: read-out: CLH
[11] = Apparent permeability in RRCK cells at pH 5.5; type: ADME, cell-based, Canis lupus familiaris, MDCKII-LE; settings: dog, MDCK
[12] = Apparent permeability in RRCK cells at pH 6.5; type: ADME, cell-based, Canis lupus familiaris, MDCKII-LE; settings: dog, MDCK
[13] = Apparent permeability in RRCK cells at pH 7.4; type: ADME, cell-based, Canis lupus familiaris, MDCKII-LE; settings: dog, MDCK
[14] = target: T4, OATP1B3 (Homo sapiens, UniProt Q9NPD5); assay: Activity at OATP1B3 (unknown origin) transfected in HEK cells assessed as transporter-mediated cellular uptake relative to mock-transfected HEK cells; type: ADME, cell-based; settings: HEK293 cells transfected with OATP1B3, read-out: FC
T4 sequence (Q9NPD5 whole entry): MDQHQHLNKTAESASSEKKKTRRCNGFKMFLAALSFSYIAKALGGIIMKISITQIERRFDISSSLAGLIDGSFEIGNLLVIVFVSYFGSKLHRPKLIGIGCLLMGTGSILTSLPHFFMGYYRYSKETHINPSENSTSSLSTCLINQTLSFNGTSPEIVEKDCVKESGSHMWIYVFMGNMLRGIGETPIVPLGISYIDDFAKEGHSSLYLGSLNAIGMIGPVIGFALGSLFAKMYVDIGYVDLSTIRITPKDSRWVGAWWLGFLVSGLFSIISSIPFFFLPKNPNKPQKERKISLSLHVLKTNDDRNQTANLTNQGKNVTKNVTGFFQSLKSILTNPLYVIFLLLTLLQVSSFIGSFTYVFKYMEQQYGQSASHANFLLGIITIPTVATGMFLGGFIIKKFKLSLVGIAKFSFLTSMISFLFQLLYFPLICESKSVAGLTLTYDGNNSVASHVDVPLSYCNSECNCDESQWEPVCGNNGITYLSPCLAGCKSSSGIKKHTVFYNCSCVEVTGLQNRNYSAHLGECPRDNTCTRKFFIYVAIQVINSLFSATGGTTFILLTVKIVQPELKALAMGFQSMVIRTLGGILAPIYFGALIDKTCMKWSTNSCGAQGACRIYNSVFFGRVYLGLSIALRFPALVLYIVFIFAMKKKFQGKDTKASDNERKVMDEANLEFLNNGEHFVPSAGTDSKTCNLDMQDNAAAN

[15] = target: T5, OATP1B1 (Homo sapiens, UniProt Q9Y6L6); assay: Activity at OATP1B1 (unknown origin) transfected in HEK cells assessed as transporter-mediated cellular uptake relative to mock-transfected HEK cells; type: ADME, cell-based; settings: HEK293 cells transfected with OATP1B1, read-out: FC
T5 sequence (Q9Y6L6 whole entry): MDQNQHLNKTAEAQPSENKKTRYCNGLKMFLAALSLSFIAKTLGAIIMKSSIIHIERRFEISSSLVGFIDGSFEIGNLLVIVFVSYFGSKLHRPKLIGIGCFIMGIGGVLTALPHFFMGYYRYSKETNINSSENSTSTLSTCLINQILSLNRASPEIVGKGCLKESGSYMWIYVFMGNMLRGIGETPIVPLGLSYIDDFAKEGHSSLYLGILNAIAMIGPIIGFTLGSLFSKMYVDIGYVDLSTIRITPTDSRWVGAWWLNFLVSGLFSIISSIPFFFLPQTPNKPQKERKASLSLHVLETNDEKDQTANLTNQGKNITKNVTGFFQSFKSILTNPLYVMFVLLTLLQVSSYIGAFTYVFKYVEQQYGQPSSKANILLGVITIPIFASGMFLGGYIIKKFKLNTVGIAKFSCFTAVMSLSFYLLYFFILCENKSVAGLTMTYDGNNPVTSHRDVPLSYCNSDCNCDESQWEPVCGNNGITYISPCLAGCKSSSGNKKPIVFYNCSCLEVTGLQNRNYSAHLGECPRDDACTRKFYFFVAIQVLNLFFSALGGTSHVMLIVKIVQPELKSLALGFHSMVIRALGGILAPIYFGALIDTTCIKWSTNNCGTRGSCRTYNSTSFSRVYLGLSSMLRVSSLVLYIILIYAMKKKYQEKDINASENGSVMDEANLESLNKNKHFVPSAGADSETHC

[16] = target: T3, Hexokinase-4; assay: Activation of glucokinase in Wistar rat hepatocytes assessed as nuclear to cytosolic translocation of protein by immunofluorescence assay; type: cell-based, Hepatocyte
[17] = tested on: Rattus norvegicus; assay: Antidiabetic activity in Goto-Kakizaki rat diabetic model assessed as reduction in glucose excursion AUC at 24 mg/kg, iv administered as infusion for 4 hrs measured after 2 hrs by oral glucose tolerance test relative to control; type: functional; set-up: scale not given: the % may be the effect or the level left
[18] = tested on: Rattus norvegicus; assay: Antihyperglycemic activity in rat assessed as liver to plasma AUC ratio at EC50 dose, iv administered as infusion up to 4 days; type: functional
[19] = tested on: Rattus norvegicus; assay: Antihyperglycemic activity in rat assessed as liver to plasma AUC ratio at 5 mg/kg, iv administered as bolus after 1 to 6 hrs; type: functional
[20] = Oral bioavailability in dog at 5 mg/kg; type: ADME, organism-based, Canis lupus familiaris; settings: in vivo
[21] = Oral bioavailability in rat at 5 mg/kg; type: ADME, organism-based; settings: in vivo
[22] = Volume of distribution at steady state in dog at 1 mg/kg, iv; type: ADME, organism-based, Canis lupus familiaris; set-up: dose 1 mg/kg, route intravenous; settings: in vivo, read-out: Vdss
[23] = Volume of distribution at steady state in rat at 1 mg/kg, iv; type: ADME, organism-based; set-up: dose 1 mg/kg, route intravenous; settings: in vivo, read-out: Vdss
[24] = Half life in dog at 1 mg/kg, iv; type: ADME, organism-based, Canis lupus familiaris; set-up: dose 1 mg/kg, route intravenous; settings: in vivo
[25] = Half life in rat at 1 mg/kg, iv; type: ADME, organism-based; set-up: dose 1 mg/kg, route intravenous; settings: in vivo
[26] = Clearance in dog at 1 mg/kg, iv; type: ADME, organism-based, Canis lupus familiaris; set-up: dose 1 mg/kg, route intravenous; settings: in vivo
[27] = Clearance in rat at 1 mg/kg, iv; type: ADME, organism-based; set-up: dose 1 mg/kg, route intravenous; settings: in vivo
[28] = Cmax in dog at 5 mg/kg, po; type: ADME, organism-based, Canis lupus familiaris; set-up: dose 5 mg/kg, route oral; settings: in vivo
[29] = Cmax in dog at 1 mg/kg, iv; type: ADME, organism-based, Canis lupus familiaris; set-up: dose 1 mg/kg, route intravenous; settings: in vivo
[30] = Cmax in rat at 5 mg/kg, po; type: ADME, organism-based; set-up: dose 5 mg/kg, route oral; settings: in vivo
[31] = Cmax in rat at 1 mg/kg, iv; type: ADME, organism-based; set-up: dose 1 mg/kg, route intravenous; settings: in vivo
[32] = AUC (0 to 24 hrs) in dog at 5 mg/kg, po; type: ADME, organism-based, Canis lupus familiaris; set-up: time < 24 hr, dose 5 mg/kg, route oral; settings: plasma
[33] = AUC (0 to 24 hrs) in dog at 1 mg/kg, iv; type: ADME, organism-based, Canis lupus familiaris; set-up: time < 24 hr, dose 1 mg/kg, route intravenous; settings: plasma
[34] = AUC (0 to 24 hrs) in rat at 1 mg/kg, iv; type: ADME, organism-based; set-up: time < 24 hr, dose 1 mg/kg, route intravenous; settings: plasma
[35] = AUC (0 to 24 hrs) in rat at 5 mg/kg, po; type: ADME, organism-based; set-up: time < 24 hr, dose 5 mg/kg, route oral; settings: plasma
[36] = Aqueous kinetic solubility of the compound at pH 6.5; type: physicochemical; settings: read-out: Kinetic_solubility

Compound: CC(C)c1nc(N(C)S(C)(=O)=O)nc(-c2ccc(F)cc2)c1/C=C/[C@@H](O)C[C@@H](O)CC(=O)O [ROSUVASTATIN]
- Drug uptake [6]: 91%
- Drug uptake [7]: 5.8 µL/min/mg
- Drug uptake [8]: 158 µL/min/mg

Compound: O=C(O)c1ccc(NC(=O)[C@H](CC2CCCC2)n2cnc(S(=O)(=O)C3CC3)c2)nc1
- pEC50 [9]: 4.59
- Papp [1]: 0.6 ×10⁻⁶ cm/s
- logD [2]: -0.2
- fold change (FC) [3]: 1.68
- fold change (FC) [4]: 0.05
- pEC50 [5]: 6.86

Compound: O=C(O)c1ccc(NC(=O)[C@H](CC2CCOCC2)n2cnc(S(=O)(=O)C3CCC3)c2)nc1
- Papp [1]: 0.9 ×10⁻⁶ cm/s
- logD [2]: -1.55
- pEC50 [5]: < 5.00

Now from value to compound, other results behind:

- Papp [1]: 0.5 ×10⁻⁶ cm/s
- logD [2]: -0.25
- fold change (FC) [3]: 1.5
- fold change (FC) [4]: 0.08
- pEC50 [5]: 6.95
Compound: O=C(O)c1ccc(NC(=O)[C@H](CC2CCCCC2)n2cnc(S(=O)(=O)C3CC3)c2)nc1

- CLint scaled [10]: < 8 mL/min/kg
- Drug uptake [6]: 55%
- Drug uptake [7]: 12 µL/min/mg
- Drug uptake [8]: 22 µL/min/mg
- Papp [11]: 1.4 ×10⁻⁶ cm/s
- Papp [12]: 1.3 ×10⁻⁶ cm/s
- Papp [13]: 2 ×10⁻⁶ cm/s
- uptake ratio [14]: 2.3
- uptake ratio [15]: 4.1
- pIC50 [16]: 5.77
- bioavailability [20]: < 5%
- bioavailability [21]: < 1%
- Vd [22]: 0.4 L/kg
- Vd [23]: 0.8 L/kg
- half-life [24]: 42 min
- half-life [25]: 12 min
- clearance [26]: 18 mL/min/kg
- clearance [27]: 96 mL/min/kg
- Cmax [28]: 12.8 ng/mL
- Cmax [29]: 6350 ng/mL
- Cmax [30]: 2.5 ng/mL
- Cmax [31]: 1400 ng/mL
- AUC(0-t) at 24 h [32]: 36.6 ng·h/mL
- AUC(0-t) at 24 h [33]: 932 ng·h/mL
- AUC(0-t) at 24 h [34]: 176 ng·h/mL
- AUC(0-t) at 24 h [35]: 3.4 ng·h/mL
- pEC50 [9]: 3.76
- solubility kinetic [36]: 428 µM (≈ 191 µg/mL)
- Papp [1]: 0.5 ×10⁻⁶ cm/s
- logD [2]: -0.1
- pEC50 [5]: 6.70
Compound: O=C(O)c1ccc(NC(=O)[C@H](CC2CCCC2)n2cnc(S(=O)(=O)C3CCC3)c2)nc1
- Activity [17]: 15.4%
- Ratio AUC [18]: 3.5
- Ratio AUC [19]: 2
